Laboratory results taken from ChEMBL document CHEMBL3102778, “Design of the influenza virus inhibitors targeting the PA endonuclease using 3D-QSAR modeling, side-chain hopping, and docking” (Bioorg Med Chem Lett, 2014).

Assay: Inhibition of influenza A virus RNA-dependent RNA polymerase subunit PA endonuclease activity

SMILES | pIC50
C/C(O)=C1/C(=O)N(O)c2cc(NC(=O)c3cccs3)ccc21 | 4.4
CC(C)CC1=N/C(=C\c2ccccc2)C(=O)N(O)C1=O | 5.32
O=C(Nc1ccc2c(c1)N(O)C(=O)/C2=C(\O)c1ccccc1)c1ccc(Cl)cc1Cl | 4.42
OC(CN1CCCCC1)Cn1c2c(c3ccccc31)CCCC2 (stereo unspecified) | 4.44
O=C(Nc1ccc2c(c1)N(O)C(=O)/C2=C(\O)c1ccccc1)c1ccccc1 | 5
CC(=O)c1c(O)n(O)c2cc(NC(=O)Nc3cccc(C(=O)O)c3)ccc12 | 4.85
C/C(O)=C1/C(=O)N(O)c2cc(NC(=O)c3cnc4ccccc4n3)ccc21 | 4.96
O=C(Nc1ccc2c(c1)N(O)C(=O)/C2=C(\O)c1ccccc1)c1cccs1 | 4.7
CCC(=O)c1c(O)n(O)c2cc(NC(=O)Nc3ccc(Cl)cc3)ccc12 | 4.42
O=C(Nc1ccc2c(c1)N(O)C(=O)/C2=C(\O)c1ccccc1)c1cnc2ccccc2n1 | 4.77
CC/C(O)=C1/C(=O)N(O)c2cc(NC(=O)Nc3cccc(C(=O)O)c3)ccc21 | 5
O=C1/C(=C(\O)c2ccccc2)c2ccc(NS(=O)(=O)c3cccs3)cc2N1O | 4.32
CC(=O)c1c(O)n(O)c2cc(NC(=O)c3ccc4ccccc4c3)ccc12 | 5.05
CC(C)/C=C1\N=C(CC(C)C)C(=O)N(O)C1=O | 5.26
CC/C(O)=C1/C(=O)N(O)c2cc(NC(=O)c3cccs3)ccc21 | 4.46
O=C(O)/C(O)=C/C(=O)C1(Cc2ccc(Cl)cc2)CCCN(S(=O)(=O)Cc2ccccc2)C1 (stereo unspecified) | 6.72
O=C(O)/C(O)=C/C(=O)C1(Cc2ccc(Cl)cc2)CCN(Cc2ccc(Cl)cc2)CC1 | 6.27
COc1ccc(/C=C2\N=C(Cc3ccccc3)C(=O)N(O)C2=O)cc1 | 5.55

SMILES | pIC50
O=C(Nc1ccccc1)Nc1ccc2c(C(=O)c3ccccc3)c(O)n(O)c2c1 | 4.54
O=C1C(Cc2ccccc2)=N/C(=C\c2ccc(F)cc2)C(=O)N1O | 5.46
O=C(/C=C/c1ccccc1Cl)Nc1ccc2c(c1)N(O)C(=O)/C2=C(\O)c1ccccc1 | 5.02
C/C(O)=C1/C(=O)N(O)c2cc(NC(=O)/C=C/c3ccccc3Cl)ccc21 | 4.59
O=C(O)/C(O)=C/C(=O)C1(Cc2ccc(Cl)cc2)CCCN(Cc2ccccc2)C1 (stereo unspecified) | 5.96
CC/C(O)=C1/C(=O)N(O)c2cc(NC(=O)Nc3ccccc3)ccc21 | 4.4
O=C(Nc1ccc2c(c1)N(O)C(=O)/C2=C(\O)c1ccccc1)c1ccc2ccccc2c1 | 5.1
Cc1nc(NCC(=O)O)sc1S(=O)(=O)Nc1ccc2c(c1)N(O)C(=O)/C2=C(\O)c1ccccc1 | 4.49
O=C(Nc1ccc2c(C(=O)c3ccccc3)c(O)n(O)c2c1)NC1CCCCC1 | 4.3
CC(C)CC1=N/C(=C\c2ccc(F)cc2)C(=O)N(O)C1=O | 6.05
CC/C(O)=C1/C(=O)N(O)c2cc(NC(=O)/C=C/c3ccccc3Cl)ccc21 | 5.1
CCC(=O)c1c(O)n(O)c2cc(NC(=O)c3ccc(Cl)cc3Cl)ccc12 | 4.35
O=C(Nc1ccc2c(c1)N(O)C(=O)/C2=C(\O)c1ccccc1)C1CCCCC1 | 4.75
COc1ccc(/C=C2\N=C(CC(C)C)C(=O)N(O)C2=O)cc1 | 6.1
Cc1cc(C(=O)Nc2ccc3c(c2)N(O)C(=O)/C3=C(\O)c2ccccc2)no1 | 5.02
CCC(=O)c1c(O)n(O)c2cc(NC(=O)Nc3ccccc3Cl)ccc12 | 4.3
O=C1C(Cc2ccc(F)cc2)=N/C(=C\c2ccccc2)C(=O)N1O | 5.19
CC/C(O)=C1/C(=O)N(O)c2cc(NC(=O)c3cnc4ccccc4n3)ccc21 | 5
